Experimental findings from US8063012B2, “Neuroprotective peptide inhibitors of AP-1 signaling and uses therefor” (Phylogica Limited, priority 2006, dated 2011) are described below.

“Also recorded” adds a separate entry of the source. Non-standard residues stand in square brackets, D forms with d. Residues, ends and D or L forms follow the SMILES beside them. No end group written: not given here.

For data set [1], the target named is T1, interaction between JUN1 and JunZ (c-Jun dimerization) (Homo sapiens, UniProt P05412).
T1 construct: Partial fragments of c-Jun i.e., JunZ (774-927 bp) and Jun1 (558-1002 bp); expressed in transfected cells; host or cells: Saccharomyces cerevisiae strain PRT480, mated with library strain PRT51
T1 sequence (P05412 259-309 limits assumed): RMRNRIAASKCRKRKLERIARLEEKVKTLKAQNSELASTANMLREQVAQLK
T1 sequence (P05412 187-331 limits assumed): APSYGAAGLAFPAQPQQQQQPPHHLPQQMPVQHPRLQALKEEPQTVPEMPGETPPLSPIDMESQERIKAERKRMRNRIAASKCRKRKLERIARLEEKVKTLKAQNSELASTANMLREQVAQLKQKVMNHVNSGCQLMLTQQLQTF
The data set is described as follows: Reverse-2-hybrid screening for inhibition of c-Jun dimerization in yeast. The data set is classed as cell-based. The source says: The yeast two hybrid system described by Vidal.M., In: The Yeast Two Hybrid System (eds. P. Bartel and S. Fields), Oxford University Press, New York (1997), was modified to add another counter selectable marker (CYH2) and to allow flexible titration of stringency by adjustment of sugar concentrations in the screening media.
Partial fragments of c-Jun i.e., JunZ (774-927 bp) and Jun1 (558-1002 bp), were cloned into yeast two-hybrid vectors pDD (a kanamycin-resistant variant of pGilda bait vector) and pJFK (pYesTrp prey vector (Invitrogen) modified by replacing the TRP1 yeast selection gene with HIS5), respectively, before co-transforming into Saccharomyces cerevisiae strain PRT480 (MATα, his3, trp1, ura3, 4 LexA-LEU2, lys2::3 cIop-LYS2, CAN^R, CYH2^R, ade2::2 LexA-CYH2-ZEO, his5::2 LexA-URA3-G418) using a standard lithium-acetate based chemical transformation protocol.
The Phylomer™ peptide library was transformed into S. cerevisiae strain PRT51 (MATα, his3, trp1, ura3, 6 LexA-LEU2, lys2::3 cIop-LYS2, CYH2^R, ade2::G418-pZero-ade2, met15::Zeo-pBLUE-met15, his5::hygro), using a high-efficiency lithium acetate-based chemical transformation protocol, slightly modified to maximize the number of transformants.
Bait/prey plasmid containing PRT480 haploids (10^8 cells) were mated with the Phylomer™ library (10^7 c.f.u.) according to a liquid mating protocol for pretransformed libraries (Clontech, USA), and plated to HW^− minimal media (minimal media lacking histidine and tryptophan) to select for diploids. These plates were scraped after 2 days incubation at 30° C., and the cells were washed, resuspended 1:1 (v/v) in yeast freezing solution (65% v/v glycerol, 0.1M MgSO4, 25 mM Tris-Cl pH 8.0), and frozen at −80° C. in 1 ml aliquots.
To select peptides that block formation of an AP-1 complex requiring the interaction between JUN1 and JunZ, about 1.5×10^7 c.f.u Jun/Phylomer™ diploids were thawed and outgrown overnight in HW^− to achieve log-phase growth. The following day, 4×10^7 cells were plated onto counter-selective media: HWU^− (lacking histidine, tryptophan and uracil), containing supplements of 0.02% galactose (gal), 2% raffinose (raff), 0.2 μg/ml uracil, 0.06% (w/v) 5-Fluoroorotic acid (FOA), 5 μg/ml cycloheximide. These plates were incubated for 7 days, then colonies were picked to HWU^− 0.02% gal, 2% raff, and then to HWL^− (lacking histidine, tryptophan and leucine) 0.02% gal, 2% raff to confirm blocking phenotype.
These included transformants comprising the clones designated PYC19 [DNA sequence set forth in SEQ ID NO: 26; encoded amino acid sequence set forth in SEQ ID NO: 27 (with FLAG epitope) and 28 (without FLAG epitope)]; PYC35 [DNA sequence set forth in SEQ ID NO: 34; encoded amino acid sequence set forth in SEQ ID NO: 35 (with FLAG epitope) and 36 (without FLAG epitope)]; PYC36 [DNA sequence set forth in SEQ ID NO: 43; encoded amino acid sequence set forth in SEQ ID NO: 44 (with FLAG epitope) and 45 (without FLAG epitope)]; PYC38/39 [DNA sequence set forth in SEQ ID NO: 52; encoded amino acid sequence set forth in SEQ ID NO: 53 (with FLAG epitope) and 54 (without FLAG epitope)]; and PYC41 [DNA sequence set forth in SEQ ID NO: 60; encoded amino acid sequence set forth in SEQ ID NO: 61 (with FLAG epitope) and 62 (without FLAG epitope)].
Subsequently, the individual plasmid clones were rescued from the yeast and re-transformed to confirm the disruption phenotype; 63% of the primary “hits”, including PYC 19, PYC35, […], PYC38/39 and PYC41, were positive in two assays for recapitulation of the phenotype.

Data set [2] concerns primary cortical neuronal cultures. The data set is described as follows: Glutamate excitotoxicity in primary cortical neuronal cultures, neuronal viability by MTS assay. The data set is classed as cell-based, rat. The note with it: for neuronal viability following glutamate excitotoxicity: MTS 18 h. The procedure: Neurons were resuspended in Neurobasal (NB; Invitrogen) containing 2% B27 supplement (B27; Invitrogen). Before seeding, culture vessels comprising either a 96-well plastic plate or 24-well plastic plate with 13 mm glass coverslips (ProSciTech, Australia), were coated with poly-D-lysine (50 μg/mL; 70-150K; Sigma) and incubated overnight at room temperature. […] Neurons were plated to obtain approximately 10,000 viable neurons for each well of a 96-well plate, or 200,000 viable neurons per well of a 24-well plate, on day in vitro (DIV) […]. […] On DIV 4, one third of the culture medium was removed and replaced with fresh NB/2% B27 containing the mitotic inhibitor, cytosine arabinofuranoside (Sigma) at 1 μM concentration. On DIV 8, one half of the culture medium was replaced with NB/2% B27.
(§1) To induce glutamate excitotoxicity in the cortical neuronal cultures (96-well plate format), 50 μl of conditioned media containing 200 μM glutamate was added to culture wells containing 50 μl conditioned media (100 μM final glutamate concentration). Cultures were incubated at 37° C. in a CO2 incubator for 5 minutes, after which time the media was replaced with 100 μl of 50% NB/2% N2 and 50% balance salt solution (NB/N2:BSS).
Untreated and glutamate-treated control samples received media additions with and without glutamate respectively.
(§2) Eighteen hours after glutamate exposure, neuronal cultures were examined by light microscopy for qualitative assessment of neuronal damage. Neuronal viability was quantitatively measured by 3-(4,5,dimethyliazol-2-yl)-5-(3-carboxymethoxy-phenyl)-2-(4-sulfophenyl)-2H-tetrazolium salt (MTS) assay (Promega, Australia). The MTS assay measures the mitochondrial conversion of the tetrazolium salt to a water-soluble brown formazan salt, which is detected spectrophotometrically at 495 nm. MTS absorbance data was converted to reflect proportional cell viability relative to both the untreated and glutamate treated controls. […] All assays were performed with quadruplicate sister neuronal cultures repeated a minimum of four times independently.
For orientation: Tetrazolium dyes change colour on reduction, which living cells bring about.

Data set [3] shares this test system. Description: Light microscopy assessment of neuronal damage after glutamate exposure. The note with it: for neuronal morphology (cellular rounding, survival) after glutamate exposure: light microscopy, one hour to 18 hours post glutamate exposure; for neurons that appeared intact and viable: Sprague-Dawley, rat, 18 hours. Format: cell-based, rat. The procedure:
Cortical neuronal cultures were established as described by Meloni et al., Neuroscience 108, 17-26, 2001. Briefly, cortical tissue from E18-E19 Sprague-Dawley rats was dissociated in Dulbelcco's Modified Eagle Medium (DMEM; Invitrogen, Australia) supplemented with 1.3 mM L-cysteine, 0.9 mM NaHCO3, 10 units/ml papain (Sigma, USA) and 50 units/ml DNase (Sigma) and washed in cold DMEM/10% (v/v) horse serum. Neurons were resuspended in Neurobasal (NB; Invitrogen) containing 2% B27 supplement (B27; Invitrogen). Before seeding, culture vessels comprising either a 96-well plastic plate or 24-well plastic plate with 13 mm glass coverslips (ProSciTech, Australia), were coated with poly-D-lysine (50 μg/mL; 70-150K; Sigma) and incubated overnight at room temperature. The poly-D-lysine was removed and replaced with NB (containing 2% B27; 4% fetal bovine serum; 1% horse serum; 62.5 μM glutamate; 25 μM 2-mercaptoethanol; and 30 μg/mL streptomycin and 30 μg/mL penicillin). Neurons were plated to obtain approximately 10,000 viable neurons for each well of a 96-well plate, or 200,000 viable neurons per well of a 24-well plate, on day in vitro (DIV) […]. Neuronal cultures were maintained in a CO2 incubator (5% CO2, 95% air balance, 98% humidity) at 37° C. On DIV 4, one third of the culture medium was removed and replaced with fresh NB/2% B27 containing the mitotic inhibitor, cytosine arabinofuranoside (Sigma) at 1 μM concentration. On DIV 8, one half of the culture medium was replaced with NB/2% B27. Cultures were used on DIV 11 or 12, and consisted of >95% neurons.
as §1, §2

Where [4] appears, read: 1 μM extracellular concentration.
The mark [5] stands for this setting: 5 μM extracellular peptide, 100 μM glutamate 5 min, no insult = 100%.
[6] abbreviates: 2 μM extracellular concentration.

In the case of “PYC19: Phylomer clone; encoded amino acid sequence SEQ ID NO: 27 (with FLAG epitope) and 28 (without FLAG epitope) (LINQSYAYPYIY; PYC19L peptide)”, in data set [1] (initial reverse-two-hybrid screen, clones expressed from pYTB3), the “yeast survival on media for counter-selection against AP-1 complex formation viz. c-Jun dimerization” value was “allowed yeast survival”. Also, the “recapitulation of the disruption phenotype” value in data set [1] (plasmid clones rescued and re-transformed, two assays) was “positive”.
Turning to GRKKRRQRRRGGLQGRRRQGYQSIKP [PYC36L-TAT], the “neuroprotection compared with JNKI-1D-TAT” value in data set [2] (1 μM concentration) was “greater neuroprotection than JNKI-1D-TAT”. Also, the “neuroprotection following glutamate excitotoxicity” value in data set [2] (setting [4]) is on record as “significant level of neuroprotection”. The “neuronal viability following glutamate excitotoxicity” value amounted to 30% in data set [2] (1 μM extracellular peptide) and 64% in data set [2] (setting [5]). In addition, in data set [3], the “neuronal morphology (cellular rounding, survival) after glutamate exposure” value (shortened to “neuronal morphology”) was “did not begin to round and survived glutamate excitotoxicity”.
Take “GRKKRRQRRRGAYQSIRSGGIESSSKRER [PYC35L-TAT]”: the “neuroprotection following glutamate excitotoxicity” value in data set [2] (setting [6]) is “neuroprotective trend”. Besides, the “neuronal viability following glutamate excitotoxicity” value in data set [2] (setting [5]) came out at 42%. Besides, the “extracellular concentration providing significant neuroprotection” value in data set [2] (glutamate excitotoxicity, dose response 0.1-10 μM) was no less than 2 µM. Moreover, the “neuronal morphology” value in data set [3] is “did not begin to round and survived glutamate excitotoxicity”.
Turning to `CC[C@@H](C)[C@@H](NC(=O)CNC(=O)[C@@H](CCC(=O)O)NC(=O)[C@@H](CO)NC(=O)[C@@H](CCCNC(=N)N)NC(=O)[C@@H](CCC(=O)O)NC(=O)[C@H](NC(=O)[C@H](N)CCCCN)[C@H](C)CC)C(=O)N[C@H](CO)C(=O)N[C@H](CCC(N)=O)C(=O)N[C@H](CO)C(=O)N[C@H](C)C(=O)N[C@H](CCCNC(=N)N)C(=O)N[C@H](CO)C(=O)N[C@H](CCCNC(=N)N)C(=O)NCC(=O)N[C@H](Cc1ccc(O)cc1)C(=O)N[C@H](CO)C(=O)NCC(=O)N[C@H](CCCNC(=N)N)C(=O)N[C@H](CCCNC(=N)N)C(=O)N[C@H](CCCNC(=N)N)C(=O)N[C@H](CCC(N)=O)C(=O)N[C@H](CCCNC(=N)N)C(=O)N[C@H](CCCNC(=N)N)C(=O)N[C@H](CCCCN)C(=O)N[C@H](CCCCN)C(=O)N[C@H](CCCNC(=N)N)C(=O)NCC(=O)O` [PYC35D Scram-TAT, reference compound] (H-[dK][dI][dE][dR][dS][dE]G[dI][dS][dQ][dS][dA][dR][dS][dR]G[dY][dS]G[dR][dR][dR][dQ][dR][dR][dK][dK][dR]G-OH; N-terminus and C-terminus assumed), the “neuroprotection in the glutamate model” value in data set [2] (5 μM extracellular peptide) was “failed to provide neuroprotection”; in data set [2] (5 μM extracellular peptide, listed as PYC35L-Scram-TAT), “reduced neuroprotection”. Besides, the “neurons that appeared intact and viable” value in data set [3] is listed as 2-5%. The “neuronal morphology” value in data set [3] is recorded as “displayed cellular rounding”.
In the case of GRKKRRQRRRGLINQSYAYPYIY [PYC19L-TAT], the figures for the “neuroprotection following glutamate excitotoxicity” value in data set [2] (setting [4]) and in data set [2] (setting [6]) were “neuroprotective trend; also recorded: significant neuroprotection” and “neuroprotective trend”, respectively. Besides, the “neuronal viability following glutamate excitotoxicity” value in data set [2] (setting [5]) came to 32%. Further, the “neuronal morphology” value in data set [3] was “did not begin to round and survived glutamate excitotoxicity”.
Take `CC[C@@H](C)[C@@H](NC(=O)CNC(=O)CNC(=O)[C@@H](CCCNC(=N)N)NC(=O)[C@@H](CCCNC(=N)N)NC(=O)[C@H](N)CCCCN)C(=O)N[C@H](CC(C)C)C(=O)N[C@H](CCCNC(=N)N)C(=O)N[C@H](Cc1ccc(O)cc1)C(=O)NCC(=O)N[C@H](CCC(N)=O)C(=O)N1CCC[C@@H]1C(=O)N[C@H](CCC(N)=O)C(=O)N[C@H](CO)C(=O)N[C@H](CCC(N)=O)C(=O)NCC(=O)N[C@H](CCCNC(=N)N)C(=O)N[C@H](CCCNC(=N)N)C(=O)N[C@H](CCCNC(=N)N)C(=O)N[C@H](CCC(N)=O)C(=O)N[C@H](CCCNC(=N)N)C(=O)N[C@H](CCCNC(=N)N)C(=O)N[C@H](CCCCN)C(=O)N[C@H](CCCCN)C(=O)N[C@H](CCCNC(=N)N)C(=O)NCC(=O)O` [PYC36D Scram-TAT, reference compound] (H-[dK][dR][dR]GG[dI][dL][dR][dY]G[dQ][dP][dQ][dS][dQ]G[dR][dR][dR][dQ][dR][dR][dK][dK][dR]G-OH; N-terminus and C-terminus assumed): the “neuroprotection in the glutamate model” value in data set [2] (5 μM extracellular peptide) is recorded as “failed to provide neuroprotection”; in data set [2] (5 μM extracellular peptide, listed as PYC36L Scram-TAT) it was “reduced neuroprotection”. For the same compound, the “neurons that appeared intact and viable” value in data set [3] is listed as 2-5%. Besides, the “neuronal morphology” value in data set [3] is “displayed cellular rounding”.
